# Measured values from patent publication US11401278B2, “Macrocyclic indole derivatives” (The Broad Institute, Inc., priority 2017, dated 2022).
# Structures can show the parent of a compound that is named as a salt.
# Target: MCL-1 (Homo sapiens (Human), UniProt Q07820, K194A/K197A/R201A)
# Test: Protein-compound interaction assay (SPR assay, Assay 8)
# Type: binding
# Conditions: immobilized MBP-MCL-1, 25° C., geometric mean
# Text: Assay 8 Protein-Compound Interaction Assay (SPR Assay)
# The ability of the compounds described in this invention to bind to MCL-1 may be determined using surface plasmon resonance (SPR). This allows for the quantification of binding in terms of the equilibrium dissociation constant (KD [M]), as well as association and dissociation rate constants (kon [1/M 1/s] and koff [1/s], respectively). The measurements may be performed using Biacore® T200 or Biacore® S200 instruments (GE Healthcare).
# For SPR measurements, recombinant MCL-1 (amino acids 173-321, N-terminal fused to Maltose Binding Protein (MBP) (SEQ ID 1) purchased from Beryllium (Bedford, Mass., USA)) was immobilized using standard amine coupling (Johnsson B et al, Anal Biochem. 1991 Nov. 1; 198(2):268-77). Briefly, carboxymethylated dextran biosensor chips (Series S Sensor Chip CMS, GE Healthcare) were activated with 1-ethyl-3-(3-dimethylaminopropyl)-carbodiimide hydrochloride (EDC) and N-hydroxysuccinimide (NHS) according to the supplier's instructions. MBP-MCL-1 was diluted in 1×PBS-P+ (GE Healthcare) and injected on the activated chip surface. Subsequently, a solution of 1 M ethanolamine-HCl (GE Healthcare) was injected to block unreacted groups, resulting in approximately 400-2500 response units (RU) of immobilized protein. A reference surface was generated by treatment with NHS-EDC and ethanolamine-HCl. Compounds were dissolved in 100% dimethylsulfoxide (DMSO) to a concentration of 10 mM and subsequently diluted in running buffer (1×PBS-P+ (GE Healthcare) [generated from PBS-P+ Buffer 10× (GE Healthcare): 0.2 M phosphate buffer with 27 mM KCl, 1.37 M NaCl and 0.5% Surfactant P20 (Tween 20).], 1% v/v DMSO). For SPR binding-measurements, serial dilutions of compound (eight dilution steps, typically ranging from 0.2 nM up to 1 μM) were injected over immobilized protein. […] Compounds were injected for 60 s followed by a dissociation time of up to 1000 s.
# The double-referenced sensorgrams were fit to a simple reversible Langmuir 1:1 reaction mechanism as implemented in the Biacore® T200 and S200 evaluation software (T200 evaluation software version 2.0 and S200 evaluation software version 1.0, GE Healthcare).
# MCL-1, sequence (Q07820 whole entry K194A/K197A/R201A, looked up): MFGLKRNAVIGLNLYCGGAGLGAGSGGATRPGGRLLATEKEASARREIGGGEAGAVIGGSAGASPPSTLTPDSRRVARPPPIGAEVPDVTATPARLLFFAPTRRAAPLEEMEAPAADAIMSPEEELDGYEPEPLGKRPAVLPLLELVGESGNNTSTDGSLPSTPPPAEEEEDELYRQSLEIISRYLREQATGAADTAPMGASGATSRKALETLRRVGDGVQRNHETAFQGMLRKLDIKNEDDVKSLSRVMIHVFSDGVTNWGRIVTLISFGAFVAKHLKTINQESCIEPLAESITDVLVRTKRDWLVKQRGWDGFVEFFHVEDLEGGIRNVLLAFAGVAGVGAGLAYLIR
Compound,Kd [nM],koff [s⁻¹],kon [M⁻¹ s⁻¹]
"CCNCC.CCc1c2c(nn1C)C(CCN1CCOCC1)N(C)S(=O)(=O)CCCn1c(C(=O)O)c(CCCOc3cccc4cc(F)ccc34)c3ccc(Cl)c-2c31 (single isomer, unassigned; enantiomer 2) [Example 76, 4-chloro-3-ethyl-7-{3-[(6-fluoronaphthalen-1-yl)oxy]propyl}-2,14-dimethyl-15-[2-(morpholin-4-yl)ethyl]-13,13-dioxo-10,11,12,13,14,15-hexahydro-2H-13lambda^6-pyrazolo[3′,4′:4,5][1,2,8]thiadiazacycloundecino[6,7,8-hi]indole-8-carboxylic acid-N-ethylethanamine Salt (Enantiomer 2)]",0.34,0.0025,7.3e+06

# Target: MCL1 protein (Homo sapiens (Human), UniProt Q07820)
# Sequence (Q07820 whole entry): as the sequence (Q07820 whole entry K194A/K197A/R201A, looked up) above, with A194K, A197K, A201R counted along it
# Test: PIxEL: protein-protein interaction in permeabilized cells by ELISA (Assay 5)
# Type: cell-based
# Conditions: permeabilized RKO cells, Biotin-BIM peptide 0.2 μM, serum free; median
# Procedure: PI×EL: Protein-Protein Interaction in Permeabilized Cells by ELISA
# Most MCL1 protein molecules are localized at the mitochondria outer membrane and sequester pro-apoptotic proteins through binding of their BCL2 homology domain 3 (BH3 domain). MEB buffer (150 mM mannitol, 10 mM HEPES pH 7.5, 50 mM KCl, 20 μM EDTA, 20 μM EGTA, 5 mM potassium succinate, 0.1% protease-free BSA (SIGMA) with low dose digitonin (0.002%) permeabilizes plasma membrane while leaves live mitochondria, where MCL1 maintains its native localization and conformation. Unlike biophysical assays (e.g. TR-FRET) that use truncated recombinant MCL1 protein, this assay uses full length endogenous MCL1 protein at mitochondria outer membrane. It measures the interaction between MCL1 protein and biotinylated BIM BH3 peptide. Compounds can compete with BIM BH3 peptide to bind to MCL1 protein. This serum free assay measures the affinity between MCL1 protein and compound in permeabilized cells, therefore it is not affected by serum binding and cell permeability, and can measure the intrinsic compound affinity.
# On day 1, RKO colon cancer cell line cells were plated at 0.8 million cells/ml, 100 μl/well in 96-well flat bottom TC plates (Corning). MCL1 antibody (Santa Cruz sc-12756) were diluted at 200 fold (final concentration 1 μg/ml) in carbonate buffer (Thermo Fisher Scientific, pH 9.6), and 50 μl of diluted antibody was added to each well of high bind ELISA plates (SARSTEDT). Each plate was tapped to make sure liquid covering entire bottom of wells and incubate at 37° C. overnight.
# On the second day, MCL1 antibody was washed from ELISA plate. 250 μl Odyssey® Blocking Buffer (PBS) (Li-Cor) was added to each well, incubated at room temperature for at least 1 hour, then washed once with 250 μl 1×PBST. Plates with RKO cells were gently washed once with 100 μl/well PBS, once with 100 μl/well MEB buffer without digitonin, then 100 μl of MEB buffer with 0.002% digitonin was gently added to each well. Compounds were added with HP Tecan compound dispenser in 3-fold dilution series, highest dose 30 μM, 10-dose per compound in quadruplicates. Biotin-BIM peptide (synthesized by 21st Century) was added with HP Tecan compound dispenser at 0.2 μM immediately after the addition of compounds. Plates were rocked for 1 hour at room temperature. Then MEB buffer was aspirated and 50 μl of CHAPS buffer (50 mM Tris-Cl, pH 7.4, 150 mM NaCl, 1% CHAPS, 1 mM EDTA, 1 mM EGTA, cOmplete protease inhibitors (Roche), PhosSTOP (Roche)) was added to each well. Plates were rocked for 1 hour at 4° C., then 45 μl cell lysate from each well were transferred to ELISA plates coated with MCL1 antibody. Plates were incubated overnight in the cold room with rocking.
# On the third day, ELISA plates were washed once with 250 μl 1×PBST. Streptavidin-poly-HRP (Thermo Fisher Scientific) was diluted to 20 ng/ml in Odyssey blocking buffer plus 0.05% Triton-100, and 100 μl was added to each well of the ELISA plate. Plates were incubated at room temperature for 1 hour with rocking, then washed with 100 μL 1×PBST for 3 times. Each SuperSignal ELISA Femto Maximum Sensitivity substrate was added to a 50-ml tube and mixed, then 100 μl of mixed substrate was added to each well. Plates were shaken for 1 minute then luminescence was measured by Envision plate reader […]. Signal of each well were normalized by no-compound control and no-cell control. IC50 was calculated using Graphic Pad PRISM software.
row,IC50 [nM],Compound
1,29.9,"Cc1c2c(nn1C)C(CCN1CCOCC1)N(C)S(=O)(=O)CCCn1c(C(=O)O)c(CCCOc3cccc4cc(F)ccc34)c3ccc(Cl)c-2c31 (racemic) [Example 48, (rac)-4-chloro-7-{3-[(6-fluoro-1-naphthyl)oxy]propyl}-2,3,14-trimethyl-15-(rac)-[2-(morpholin-4-yl)ethyl]-11,12,14,15-tetrahydro-2H,10H-pyrazolo[3′,4′:4,5][1,2,8]thiadiazacycloundecino[6,7,8-hi]indole-8-carboxylic acid 13,13-dioxide (Mixture of Stereoisomers)]"
2,329,"CCc1c2c(nn1C)CN(C1CC1)S(=O)(=O)CCCn1c(C(=O)O)c(CCCOc3cccc4cc(F)ccc34)c3ccc(Cl)c-2c31 (racemic) [Example 53, (rac)-4-chloro-14-cyclopropyl-3-ethyl-7-{3-[(6-fluoro-1-naphthyl)oxy]propyl}-2-methyl-11,12,14,15-tetrahydro-2H,10H-pyrazolo[3′,4′:4,5][1,2,8]thiadiazacycloundecino[6,7,8-hi]indole-8-carboxylic acid 13,13-dioxide]"
3,145,"CCc1c2c(nn1C)CN(CC)S(=O)(=O)CCCn1c(C(=O)O)c(CCCOc3cccc4cc(F)ccc34)c3ccc(Cl)c-2c31 (racemic) [Example 56, (rac)-4-chloro-3,14-diethyl-7-{3-[(6-fluoro-1-naphthyl)oxy]propyl}-2-methyl-11,12,14,15-tetrahydro-2H,10H-pyrazolo[3′,4′:4,5][1,2,8]thiadiazacycloundecino[6,7,8-hi]indole-8-carboxylic acid 13,13-dioxide]"
4,458,"Cc1c2c(nn1C)CNS(=O)(=O)CCCn1c(C(=O)O)c(CCCOc3cccc4cc(F)ccc34)c3ccc(Cl)c-2c31 (single isomer, unassigned; enantiomer 1) [Example 51, 4-chloro-7-{3-[(6-fluoronaphthalen-1-yl)oxy]propyl}-2,3-dimethyl-13,13-dioxo-10,11,12,13,14,15-hexahydro-2H-13lambda^6-pyrazolo[3′,4′:4,5][1,2,8]thiadiazacycloundecino[6,7,8-hi]indole-8-carboxylic acid (Enantiomer 1)]"
5,360,"CCc1c2c(nn1C)CN(C1CC1)S(=O)(=O)CCCn1c(C(=O)O)c(CCCOc3cccc4cc(F)ccc34)c3ccc(Cl)c-2c31 (single isomer, unassigned; enantiomer 1) [Example 54, (−)-4-chloro-14-cyclopropyl-3-ethyl-7-{3-[(6-fluoronaphthalen-1-yl)oxy]propyl}-2-methyl-13,13-dioxo-10,11,12,13,14,15-hexahydro-2H-13lambda^6-pyrazolo[3′,4′:4,5][1,2,8]thiadiazacycloundecino[6,7,8-hi]indole-8-carboxylic acid N-ethylethanamine Salt (Enantiomer 1)]"
6,74.8,"CCc1c2c(nn1C)CN(CC)S(=O)(=O)CCCn1c(C(=O)O)c(CCCOc3cccc4cc(F)ccc34)c3ccc(Cl)c-2c31 (single isomer, unassigned; enantiomer 1) [Example 57, (+)-4-chloro-3,14-diethyl-7-{3-[(6-fluoronaphthalen-1-yl)oxy]propyl}-2-methyl-13,13-dioxo-10,11,12,13,14,15-hexahydro-2H-13lambda^6-pyrazolo[3′,4′:4,5][1,2,8]thiadiazacycloundecino[6,7,8-hi]indole-8-carboxylic acid N-ethylethanamine Salt (Enantiomer 1)]"
7,8.74,"Cc1c2c(nn1C)C(CCN1CCOCC1)N(C)S(=O)(=O)CCCn1c(C(=O)O)c(CCCOc3cccc4cc(F)ccc34)c3ccc(Cl)c-2c31 (single isomer, unassigned; enantiomer 2) [Example 67, 4-chloro-7-{3-[(6-fluoronaphthalen-1-yl)oxy]propyl}-2,3,14-trimethyl-15-[2-(morpholin-4-yl)ethyl]-13,13-dioxo-10,11,12,13,14,15-hexahydro-2H-13lambda^6-pyrazolo[3′,4′:4,5][1,2,8]thiadiazacycloundecino[6,7,8-hi]indole-8-carboxylic acid (Enantiomer 2)]"
8,22,"CCc1c2c(nn1C)C(CCC1CCOCC1)N(C)S(=O)(=O)CCCn1c(C(=O)O)c(CCCOc3cccc4cc(F)ccc34)c3ccc(Cl)c-2c31 (single isomer, unassigned; enantiomer 3) [Example 63, (+)-4-chloro-3-ethyl-7-{3-[(6-fluoronaphthalen-1-yl)oxy]propyl}-2,14-dimethyl-15-[2-(oxan-4-yl)ethyl]-13,13-dioxo-10,11,12,13,14,15-hexahydro-2H-13lambda^6-pyrazolo[3′,4′:4,5][1,2,8]thiadiazacycloundecino[6,7,8-hi]indole-8-carboxylic acid (Enantiomer 3)]"

row,Compound,IC50 [nM]
1,"CCc1c2c(nn1C)C(CCN1CCOCC1)N(C)S(=O)(=O)CCCn1c(C(=O)O)c(CCCOc3cccc4cc(F)ccc34)c3ccc(Cl)c-2c31 (racemic) [Example 73, (rac)-(4-chloro-3-ethyl-7-{3-[(6-fluoronaphthalen-1-yl)oxy]propyl}-2,14-dimethyl-15-[2-(morpholin-4-yl)ethyl]-13,13-dioxo-10,11,12,13,14,15-hexahydro-2H-13lambda^6-pyrazolo[3′,4′:4,5][1,2,8]thiadiazacycloundecino[6,7,8-hi]indole-8-carboxylic acid (Racemate 1)]",33.1
